In patent publication US8158783B2, “MTP inhibiting tetrahydro-naphthalene-1-carboxylic acid derivatives” (Janssen Pharmaceutica N.V., priority 2006, dated 2012):

Tests used:
[1] = test system: secretion of ApoB, HepG2 cells; assay: Quantification of the secretion of ApoB in HepG2 cells; assay type: cell-based; details: Homo sapiens, 24 hours of incubation, pIC50 = -log IC50
Method: HepG2 cells were cultured in 24-well plates in MEM Rega 3 containing 10% fetal calf serum. At 70% confluency, the medium was changed and the test compound or carrier (DMSO, 0.4% final concentration) was added. After 24 hours of incubation, the medium was transferred to Eppendorf tubes and cleared by centrifugation. A sheep antibody directed against either apoB was added to the supernatant and the mixture was kept at 8° C. for 24 hours. Then, rabbit anti-sheep antibody was added and the immune complex was allowed to precipitate for 24 hours at 8° C. The immunoprecipitate was pelleted by centrifugation for 25 minutes at 1320 g and washed twice with a buffer containing 40 mM Mops, 40 mM NaH2PO4, 100 mM NaF, 0.2 mM DTT, 5 mM EDTA, 5 mM EGTA, 1% Triton-X-100, 0.5% sodium deoxycholate (DOC), 0.1% SDS, 0.2 mM leupeptin and 0.2 mM PMSF. Radioactivity in the pellet was quantified by liquid scintillation counting.

[2] = biological target: MTP (Homo sapiens, UniProt P55157); assay: MTP assay (triglyceride transfer from donor to acceptor vesicles); assay type: biochemical; details: MTP activity, [14C]-triglyceride transfer between vesicles, 37° C.
MTP, sequence (P55157 19-894, species assumed): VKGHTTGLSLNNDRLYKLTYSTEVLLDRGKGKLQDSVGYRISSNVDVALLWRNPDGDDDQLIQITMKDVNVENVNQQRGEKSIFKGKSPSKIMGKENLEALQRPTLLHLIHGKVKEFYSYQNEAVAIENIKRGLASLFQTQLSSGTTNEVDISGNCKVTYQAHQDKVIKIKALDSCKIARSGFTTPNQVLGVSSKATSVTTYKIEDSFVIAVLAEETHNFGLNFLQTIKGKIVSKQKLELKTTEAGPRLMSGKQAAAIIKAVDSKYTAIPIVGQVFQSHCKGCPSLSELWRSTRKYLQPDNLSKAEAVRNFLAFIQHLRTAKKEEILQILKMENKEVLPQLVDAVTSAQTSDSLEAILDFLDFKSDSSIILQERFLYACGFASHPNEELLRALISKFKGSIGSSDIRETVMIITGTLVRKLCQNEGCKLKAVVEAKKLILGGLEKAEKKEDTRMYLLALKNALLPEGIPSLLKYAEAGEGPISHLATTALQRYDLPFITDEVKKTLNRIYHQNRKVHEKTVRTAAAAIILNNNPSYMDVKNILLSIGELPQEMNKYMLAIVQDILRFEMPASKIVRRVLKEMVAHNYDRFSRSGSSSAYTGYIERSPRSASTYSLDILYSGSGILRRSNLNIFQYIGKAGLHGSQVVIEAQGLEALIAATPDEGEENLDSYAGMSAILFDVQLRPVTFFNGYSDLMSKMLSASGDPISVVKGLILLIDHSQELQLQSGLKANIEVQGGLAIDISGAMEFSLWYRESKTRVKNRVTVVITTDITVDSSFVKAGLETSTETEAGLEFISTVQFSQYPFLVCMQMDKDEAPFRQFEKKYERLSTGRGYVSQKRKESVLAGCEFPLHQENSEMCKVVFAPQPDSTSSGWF
MTP, sequence (P07237 18-508 partner, species assumed): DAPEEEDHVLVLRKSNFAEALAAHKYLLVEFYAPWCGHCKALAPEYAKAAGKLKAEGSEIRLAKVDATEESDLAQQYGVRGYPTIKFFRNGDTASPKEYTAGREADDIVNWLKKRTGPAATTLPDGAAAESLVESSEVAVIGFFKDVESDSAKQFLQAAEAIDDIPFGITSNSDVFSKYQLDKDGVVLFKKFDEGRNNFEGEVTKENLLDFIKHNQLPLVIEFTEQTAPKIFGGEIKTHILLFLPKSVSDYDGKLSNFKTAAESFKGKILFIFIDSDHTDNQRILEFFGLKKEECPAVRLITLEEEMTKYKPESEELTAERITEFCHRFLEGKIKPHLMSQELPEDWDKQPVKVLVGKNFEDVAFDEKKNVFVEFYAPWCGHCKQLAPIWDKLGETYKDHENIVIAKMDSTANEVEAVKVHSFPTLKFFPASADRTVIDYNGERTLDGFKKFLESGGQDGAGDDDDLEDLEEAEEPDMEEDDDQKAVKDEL
Method: MTP activity was measured using an assay similar to one described by J. R. Wetterau and D. B. Zilversmit in Chemistry and Physics of Lipids, 38, 205-222 (1985). To prepare the donor and acceptor vesicles, the appropriate lipids in chloroform were put into a glass test tube and dried under a stream of N2. A buffer containing 15 mM Tris-HCl pH 7.5, 1 mM EDTA, 40 mM NaCl, 0.02% NaN3 (assay buffer) was added to the dried lipid. The mixture was vortexed briefly and the lipids were then allowed to hydrate for 20 min on ice. Vesicles were then prepared by bath sonication (Branson 2200) at room temperature for maximum 15 min. Butylated hydroxytoluene was included in all vesicle preparations at a concentration of 0.1%. The lipid transfer assay mixture contained donor vesicles (40 nmol phosphatidylcholine, 7.5 mol % of cardiolipin and 0.25 mol % glycerol tri[1-^14C]-oleate), acceptor vesicles (240 nmol phosphatidylcholine) and 5 mg BSA in a total volume of 675 μl in a 1.5 ml microcentrifuge tube. Test compounds were added dissolved in DMSO (0.13% final concentration). After 5 minutes of pre-incubation at 37° C., the reaction was started by the addition of MTP in 100 μl dialysis buffer. The reaction was stopped by the addition of 400 μl DEAE-52 cellulose pre-equilibrated in 15 mM Tris-HCl pH 7.5, 1 mM EDTA, 0.02% NaN3 (1:1, vol/vol). The mixture was agitated for 4 min and centrifuged for 2 min at maximum speed in an Eppendorf centrifuge (4° C.) to pellet the DEAE-52-bound donor vesicles. An aliquot of the supernatant containing the acceptor liposomes was counted and the [^14C]-counts were used to calculate the percent triglyceride transfer from donor to acceptor vesicles.

SMILES | IC50 [1] [nM] | IC50 [2] [nM]
CCOC(=O)[C@]1(c2ccccc2)CC[C@@H](C(=O)N(C)CCNC(=O)c2ccccc2)c2ccccc21 [compound 7] | > 1000 | 85.5
CCOC(=O)[C@]1(c2ccccc2)CC[C@@H](C(=O)N(C)CCNC(=O)c2ccccc2OC)c2ccccc21 [compound 8] | > 1000 | 27
CCOC(=O)[C@]1(c2ccccc2)CC[C@@H](C(=O)NCCCNC(=O)c2ccccc2)c2ccccc21 [compound 4] | 317 | 22.2
CCOC(=O)[C@]1(c2ccccc2)CC[C@H](C(=O)NCCNC(=O)c2ccccc2OC)c2ccccc21 [compound 14] | – | 2490
CCOC(=O)[C@]1(c2ccccc2)CC[C@@H](C(=O)N(C)CCNC(=O)c2ccccc2-c2ccc(C(F)(F)F)cc2)c2ccccc21 [compound 9] | 128 | 19.1
CCOC(=O)[C@]1(c2ccccc2)CC[C@@H](C(=O)NCCCNC(=O)c2ccccc2OC)c2ccccc21 [compound 5] | 192 | 9.38
CCOC(=O)[C@]1(c2ccccc2)CC[C@@H](C(=O)NCCNC(=O)c2ccccc2)c2ccccc21 [compound 1] | – | 1250
CCOC(=O)[C@]1(c2ccccc2)CC[C@@H](C(=O)N(C)CCCNC(=O)c2ccccc2OC)c2ccccc21 [compound 11] | 665 | –
CCOC(=O)[C@]1(c2ccccc2)CC[C@H](C(=O)NCCCNC(=O)c2ccccc2)c2ccccc21 [compound 16] | 791 | > 100
CCOC(=O)[C@]1(c2ccccc2)CC[C@@H](C(=O)NCCNC(=O)c2ccccc2OC)c2ccccc21 [compound 2] | – | 406
CCOC(=O)[C@]1(c2ccccc2)CC[C@H](C(=O)NCCCNC(=O)c2ccccc2OC)c2ccccc21 [compound 17] | 415 | 37.3
CCOC(=O)[C@]1(c2ccccc2)CC[C@H](C(=O)NCCNC(=O)c2ccccc2)c2ccccc21 [compound 13] | – | 5380
CCOC(=O)[C@]1(c2ccccc2)CC[C@@H](C(=O)N(C)CCCNC(=O)c2ccccc2-c2ccc(C(F)(F)F)cc2)c2ccccc21 [compound 12] | 23.2 | 6.34
CCOC(=O)[C@]1(c2ccccc2)CC[C@@H](C(=O)NCCNC(=O)c2ccccc2-c2ccc(C(F)(F)F)cc2)c2ccccc21 [compound 3] | – | 208
CCOC(=O)[C@]1(c2ccccc2)CC[C@H](C(=O)NCCCNC(=O)c2ccccc2-c2ccc(C(F)(F)F)cc2)c2ccccc21 [compound 18] | 309 | 61.8
CCOC(=O)[C@]1(c2ccccc2)CC[C@@H](C(=O)NCCCNC(=O)c2ccccc2-c2ccc(C(F)(F)F)cc2)c2ccccc21 [compound 6] | 42.7 | 9.59
CCOC(=O)[C@]1(c2ccccc2)CC[C@H](C(=O)NCCNC(=O)c2ccccc2-c2ccc(C(F)(F)F)cc2)c2ccccc21 [compound 15] | – | 2750
CCOC(=O)[C@]1(c2ccccc2)CC[C@@H](C(=O)N(C)CCCNC(=O)c2ccccc2)c2ccccc21 [compound 10] | 746 | 10

Continued, values first:

IC50 [1] [nM] | IC50 [2] [nM] | SMILES
560 | 173 | CCOC(=O)[C@]1(c2ccccc2)CC[C@@H](C(=O)NCCNC(=O)c2ccccc2OC)c2ccccc21 (stereo in doubt) [compound 26]
> 1000 | 80 | COC(=O)CCNC(=O)[C@]1(c2ccccc2)CC[C@@H](C(=O)N2CCCC(NC(=O)c3cccnc3OC)CC2)c2ccccc21 (stereo partly shown) [compound 33]
23.2 | 6.11 | CCOC(=O)[C@]1(c2ccccc2)CC[C@H](C(=O)N(C)CCCNC(=O)c2ccccc2-c2ccc(C(F)(F)F)cc2)c2ccccc21 [compound 24]
> 1000 | 65.2 | COC(=O)CCNC(=O)[C@]1(c2ccccc2)CC[C@@H](C(=O)N(C)CCCNC(=O)c2ccccc2OC)c2ccccc21 [compound 31]
17.3 | 6.52 | CCOC(=O)[C@@]1(c2ccccc2)CC[C@H](C(=O)NCCNC(=O)c2ccccc2OC)c2ccccc21 (stereo in doubt) [compound 25]
> 1000 | 166 | COC(=O)CCNC(=O)[C@]1(c2ccccc2)CC[C@@H](C(=O)N(C)CCCNC(=O)c2cccnc2OC)c2ccccc21 [compound 32]
240 | 48.2 | CCOC(=O)[C@]1(c2ccccc2)CC[C@H](C(=O)N(C)CCNC(=O)c2ccccc2-c2ccc(C(F)(F)F)cc2)c2ccccc21 [compound 21]
95.9 | 7.18 | CCOC(=O)[C@@]1(c2ccccc2)CC[C@H](C(=O)N(C)CCCNC(=O)c2ccccc2OC)c2ccccc21 (stereo in doubt) [compound 28]
228 | 131 | CCOC(=O)[C@]1(c2ccccc2)CC[C@H](C(=O)N(C)CCNC(=O)c2ccccc2)c2ccccc21 [compound 19]
> 1000 | 70.6 | CCOC(=O)[C@]1(c2ccccc2)CC[C@H](C(=O)N(C)CCNC(=O)c2ccccc2OC)c2ccccc21 [compound 20]
– | > 1000 | COC(=O)CCNC(=O)[C@]1(c2ccccc2)CC[C@@H](C(=O)N2CCOC(CNC(=O)c3cccnc3O)C2)c2ccccc21 (stereo partly shown) [compound 43]
662 | 16.4 | CCOC(=O)[C@]1(c2ccccc2)CC[C@H](C(=O)N(C)CCCNC(=O)c2ccccc2)c2ccccc21 [compound 22]
104 | 40 | CCCOC(=O)[C@]1(c2ccccc2)CC[C@@H](C(=O)N2CCC(NC(=O)c3ccccc3OC)C2)c2ccccc21 (stereo partly shown) [compound 29]
597 | 11.6 | CCOC(=O)[C@]1(c2ccccc2)CC[C@H](C(=O)N(C)CCCNC(=O)c2ccccc2OC)c2ccccc21 [compound 23]
– | 52.8 | COC(=O)CCNC(=O)[C@]1(c2ccccc2)CC[C@@H](C(=O)N2CCCC(NC(=O)c3ccccc3OC)CC2)c2ccccc21 (stereo partly shown) [compound 44]
286 | 23 | CCCOC(=O)[C@]1(c2ccccc2)CC[C@@H](C(=O)N2CCCC(NC(=O)c3ccccc3OC)CC2)c2ccccc21 (stereo partly shown) [compound 42]
76.7 | 23.3 | CCCOC(=O)[C@]1(c2ccccc2)CCC(C(=O)N2CC[C@@H](NC(=O)c3cccnc3OC)C2)c2ccccc21 (stereo partly shown) [compound 30]
